Assay results reported in patent US9452985B2, “Tau imaging probe” (GE Healthcare Limited, priority 2010, dated 2016).

system: neurofibrillary tangles; experiment: Staining test on brain section of Alzheimer's disease patients; assay type: binding, human; details: 100 μM solution in 50% ethanol, 10 minutes, fluorescence microscope
Excerpt: The procedure of staining test on the compounds of the present invention on the brain section of Alzheimer's disease patients is described below:
(1) We used the brain specimens of the temporal lobe or hippocampus from patients who were definitely diagnosed as having Alzheimer's disease pathology. The specimens were obtained from Choju Medical Institute, Fukushimura Hospital, our collaborating research institute, and the consent for use for research purposes was obtained from the patients' bereaved family (Fukushimura Hospital, Ethics Committee Approval No. 20).
(2) The paraffin-embedded brain tissue was sliced to 6 or 8 μm thickness, extended on a slide glass, and dried. The paraffinized brain section was deparaffinized by washing with xylene for 10 minutes×2, 100% ethanol for 5 minutes×2, 90% ethanol for 5 minutes, and running water for 10 minutes in this order.
(3) As a pretreatment for staining with the compounds of the present invention, the treatment to remove autofluorescence with lipofuscin was performed. First, the paraffinized brain section was immersed in 0.25% KMnO4 solution for 20 minutes. It was washed with PBS for 2 minutes twice, immersed in a 0.1% K2S2O5/oxalic acid solution for approximately 5 minutes, and further washed with PBS for 2 minutes 3 times.
(4) From 100 μM solution of the compounds of the present invention dissolved in 50% ethanol, approximately 150 μl was dropped on the section to react for 10 minutes. After being immersed in tap water 5 times, it was mounted with Flour Save Reagent (Calbiochem) and examined with a fluorescence microscope (Nikon, ECLIPSE 80i). The images were taken with a digital camera (Nikon, Dxin1200F or Photometrics, Cool SNAP ES).

Row | SMILES | binding to neurofibrillary tangles in the brain section of Alzheimer's disease patients (staining test)
1 | CCN(CC)c1ccc(-c2ccc3ccc(OC(CO)CF)cc3n2)cc1 (stereo not shown) [THK-5058, 2-(4-diethylaminophenyl)-7-(1-fluoromethyl-2-hydroxyethoxy)quinoline] | bind to neurofibrillary tangles specifically and selectively
2 | CN1CCOc2cc(-c3ccc4cc(OCC(O)CF)ccc4n3)cnc21 (stereo not shown) [THK-5136, 6-[(3-fluoro-2-hydroxy)propoxy]-2-(4-methyl-3,4-dihydro-2H-pyrido[3,2-b][1,4]oxazin-7-yl)quinoline] | bind to neurofibrillary tangles specifically and selectively
3 | CCN(CC)c1ccc2ccc(-c3ccc(F)nc3)nc2c1 [THK-5097, 7-diethylamino-2-(2-fluoropyrid-5-yl)quinoline] | bind to neurofibrillary tangles specifically and selectively
4 | CCN(CC)c1ccc(-c2ccc3cc(OC(CO)CF)ccc3n2)cc1 (stereo not shown) [THK-5035, 2-(4-diethylaminophenyl)-6-(1-fluoromethyl-2-hydroxy)quinoline] | bind to neurofibrillary tangles specifically and selectively
5 | CN1CCCc2cc(-c3ccc4cc(OC(C)(C)C(O)CF)ccc4n3)ccc21 (stereo not shown) [THK-5157, 6-[(3-fluoro-2-hydroxy-1,1-dimethyl)propoxy]-2-(1-methyl-1,2,3,4-tetrahydroquinolin-6-yl)quinoline] | bind to neurofibrillary tangles specifically and selectively
6 | CN(C)c1ccc(-c2ccc3ccc(OCC(O)CF)cc3n2)cc1 (stereo not shown) [THK-5107, 7-[(3-fluoro-2-hydroxy)propoxy]-2-(4-dimethylaminophenyl)quinoline] | bind to neurofibrillary tangles specifically and selectively
7 | CCN(CC)c1ccc(-c2ccc3ccc(OCC(O)CF)cc3n2)cc1 (stereo not shown) [THK-5038, 2-(4-diethylaminophenyl)-7-(2-fluoromethyl-2-hydroxyethoxy)quinoline] | bind to neurofibrillary tangles specifically and selectively
8 | Nc1cccc2ccc(-c3ccc(F)cc3)nc12 [THK-5081, 8-amino-2-(4-fluorophenyl)quinoline] | bind to neurofibrillary tangles specifically and selectively
9 | CCN(CC)c1ccc(-c2nc3ccccc3cc2OC(CO)CF)cc1 (stereo not shown) [THK-5065, 2-(4-diethylaminophenyl)-3-(1-fluoromethyl-2-hydroxyethoxy)quinoline] | bind to neurofibrillary tangles specifically and selectively
10 | CN(C)c1ccc2nc(-c3ccc(F)cc3)ccc2c1 [THK-5087, 2-(4-fluorophenyl)-6-dimethylaminoquinoline] | bind to neurofibrillary tangles specifically and selectively
11 | CN(C)c1cccc2ccc(-c3ccc(F)cc3)nc12 [THK-5082, 2-(4-fluorophenyl)-8-dimethylaminoquinoline] | bind to neurofibrillary tangles specifically and selectively
12 | CCN(CC)c1ccc(-c2ccc3cccc(OCC(O)CF)c3n2)cc1 (stereo not shown) [THK-5066, 2-(4-diethylaminophenyl)-8-[(3-fluoro-2-hydroxy)propoxy]quinoline] | bind to neurofibrillary tangles specifically and selectively
13 | Nc1ccc2ccc(-c3ccc(F)cc3)nc2c1 [THK-5075, 7-amino-2-(4-fluorophenyl)quinoline] | bind to neurofibrillary tangles specifically and selectively
